Values of other authors, collected in patent US8841297B2, “Phenylimidazole derivative as PDE10A enzyme inhibitor” (H. Lundbeck A/S, priority 2009, dated 2014).

What was measured:
[1] = test system: PCP induced hyperactivity; conditions: rats; cited from earlier work
[2] = test system: amphetamine induced hyperactivity; conditions: rats; cited from earlier work
[3] = test system: cataleptic effect of haloperidol; conditions: rats, cited from earlier work

## COc1ccc(Cc2nccc3cc(OC)c(OC)cc23)cc1OC [Papaverine, papaverine]
[1]
  effect on hyperactivity induced by PCP: reduced hyperactivity
[2]
  reduction of amphetamine induced hyperactivity: insignificant
[3]; papaverine alone
  catalepsy on its own: did not cause catalepsy on its own
[3]; together with haloperidol
  effect on the cataleptic effect of haloperidol: potentiated the cataleptic effect
